The source of these data is patent US20250334536A1, “MODIFIED OXID[…] ITS APPLICATION” (National Yang Ming Chiao Tung University, priority 2024, published 2025).

Read-outs that look alike come from different tables or passages of the source.

The subject of experiment [1] is nanoparticle composition (enzyme nanoparticles of modified glucose oxidase of the first type crosslinked with glutaraldehyde). The following applies: 35° C.
Experimental: Subsequently, an enzyme reaction solution containing the nanoparticle composition (concentration: 0.1 μg/mL), HRP (concentration: 0.4 μg/mL), and ABTS (concentration: 2.5 mM) is prepared. A volume of 400 μL of the reaction solution is transferred to a J-815 circular dichroism spectrometer for subsequent measurements, and a circulating constant-temperature water bath is activated to regulate the temperature to the desired setting. […] The change in absorbance over time is then recorded. Using the standard calibration curve of ABTS^+· and the rate of absorbance change, the corresponding concentration change of ABTS^+· is calculated. Based on the Michaelis-Menten kinetic model, various enzyme kinetic parameters are derived to evaluate the catalytic efficiency and stability of the nanoparticle composition under different temperature conditions.
The test system is the same in experiment [2].
Experimental: Ethanol is then gradually added (5 μl each time) until the solution becomes turbid. Glutaraldehyde is added, and the mixture is stirred at room temperature for 1.5 hours. After the reaction, the formed nanoparticles are collected by centrifugation (12,000 g, 15 minutes). The collected precipitate is resuspended in a mixture of ethanol and deionized water, followed by centrifugation under the same conditions. Subsequently, the nanoparticles are washed twice by centrifugation under the same conditions using ultrapure water. Finally, the precipitate is resuspended in deionized water and stored at 4° C. until use.
Subsequently, the catalytic efficiency of the nanoparticle composition is investigated using the 2,2′-azino-bis(3-ethylbenzothiazoline-6-sulfonic acid) (ABTS) assay. […] The generated H2O2 then reacts with HRP to oxidize the colorless ABTS into the green ABTS radical cation (ABTS^+·), enabling colorimetric analysis of enzyme activity.
Experiment [3] shares this test system. As to the method: Deionized water solutions with varying pH values are then prepared, into which horseradish peroxidase (HRP, 0.4 μg/mL) and ABTS (2.5 mM) are added, followed by addition of the nanoparticle composition (0.1 μg/mL). 1 mL of the resulting mixture is placed in a UV-Vis spectrophotometer (model V670, JASCO), and the detection wavelength is set to 740 nm, corresponding to the characteristic absorption wavelength of ABTS^+·. Subsequently, glucose is added, and the time-dependent absorbance is measured. Using the standard calibration curve of ABTS^+· and the slope of the reaction rate, the time-dependent concentration of ABTS^+· is calculated. Enzyme kinetic parameters are then determined based on the Michaelis-Menten model, with further analysis performed using the Lineweaver-Burk model to evaluate the steady-state enzymatic behavior of the nanoparticle composition under different pH conditions.
This is another data set of the same source.

Experiment [4] deals with glucose oxidase nanoparticles. The following applies: comparison value; cited from earlier work.
The mark [5] stands for this setting: nanoparticle composition, substrate glucose.

As a reminder, the Km is the substrate concentration at which the rate is half of its maximum. On to `OC[C@H]1OC(O)[C@H](O)[C@@H](O)[C@@H]1O` (some centres unmarked) [glucose], for which the Kcat/KM result was “approximately 6.0×10^4 s^−1·M^−1” in experiment [1]; 45200 M⁻¹ s⁻¹ in experiment [2] (setting [5]); 5000 M⁻¹ s⁻¹ in experiment [3] (pH 5); “approximately 4.8×10^4 s^−1·M^−1” in experiment [3] (pH 7); 10000 M⁻¹ s⁻¹ in experiment [3] (pH 9). In experiment [2] (nanoparticle composition vs glucose oxidase nanoparticles (676 M^−1·s^−1)), the “catalytic efficiency (Kcat/KM), times higher than that of glucose oxidase nanoparticles” value is recorded as “approximately 66 times”. Further, in experiment [2] (nanoparticle composition vs modified glucose oxidase), the “increase of catalytic efficiency (Kcat/KM) compared to modified glucose oxidase” value is given as “more than 300%”. In experiment [2] (setting [5]), this compound displayed a Kcat of 421.87 s⁻¹. The Km in experiment [2] (setting [5]) worked out at 9.33 mM. Besides, in experiment [2] (setting [5]), the VMax was 0.2646 μM^s − 1. In addition, the “catalytic efficiency (Kcat/KM)” value in experiment [4] was 676 M⁻¹ s⁻¹.
